Measured values taken from patent US12486270B2, “Receptor tyrosine kinase inhibitors for treatment of protein kinase modulation-responsive disease or disorder” (THE UNITED STATES OF AMERICA, as represented by the …, priority 2019, dated 2025).
Values belong to the compound of their own block, whether it stands above or below them.

Legend:
[1] = test system: LC3B; experiment: LC3B accumulation in SW620 cells; type: cell-based, human; conditions: pre-treatment 4 hours; spautin 5 μM, 3-MA 5 mM
Protocol: Western blotting. Protein lysates were separated by SDS-PAGE and then transferred to a nitrocellulose membrane. After blocking, membranes were incubated overnight with antibodies to LC3 (rabbit Monoclonal antibody, Cell Signaling). After washing with TBS-T (TBS with 0.05 Tween-20), membranes were incubated with the HRP (Horseradish peroxidase)-linked secondary antibody (IgG donkey anti-rabbit IgG (NA934) (GE LifeSciences, Marlborough, MA). Blots were developed using ECL prime (GE LifeSciences, RPN2232) and digitally captured on an LAS4000 (GE LifeSciences). After stripping, the membrane was re-probed with a mouse monoclonal antibody to GAPDH (Santa Cruz) followed by a secondary IgG sheep anti-mouse IgG (NA931). Western blot bands were quantified using Fiji (Schindelin et al., 2012).

[2] = test system: LC3B; experiment: LC3B autophagy marker by immunoblotting in HT-29 cells; type: cell-based, human; conditions: for LC3B accumulation in cells treated with 1 μM NVP or NVP-Iso: spautin 5 μM, 3-MA 5 mM, chloroquine 10 μM
Protocol: Western blotting. Protein lysates were separated by SDS-PAGE and then transferred to a nitrocellulose membrane. After blocking, membranes were incubated overnight with antibodies to LC3 (rabbit Monoclonal antibody, Cell Signaling).

[3] = test system: HT-29 cells; experiment: HT-29 cell proliferation (3H-thymidine incorporation); type: cell-based, human; conditions: co-treatment with autophagy inhibitor, 72 hours
[4] = target: T1, EphA2 (Homo sapiens (Human), UniProt P29317); experiment: Binding affinity to EphA2 by microscale thermophoresis (MST); conditions: for Kd: towards EphA2
Description: The binding affinities of the compounds to EphA2 were investigated by microscale thermophoresis (MST) (M. Jerabek-Willemsen et al., J. Mol. Struct. 2014, 1077, 101-113).

[5] = test system: SW620; experiment: Cell cycle analysis by flow cytometry in colorectal cancer cells (SW620); type: cell-based, human; conditions: 72 hours; compared to control and NVP/NVP-Iso
Protocol: Cell cycle was assessed by flow cytometry. Adherent cells were harvested, washed with PBS and fixed for 30 minutes in cold 70% ethanol at 4° C. Cells were washed twice with PBS, treated with 2.5 μg/mL RNaseA (ThermoFisher, 12091039) for 30 minutes at room temperature, and then stained with 10 μg propidium iodide for 15 minutes prior to analysis performed on FACS Canton (BD Biosciences; San Jose, CA) and cell cycled analyzed (FloJo software).

[6] = target: EphB2 (Homo sapiens (Human), UniProt P29323); experiment: Endogenous EphB2 tyrosine phosphorylation by ELISA in Colo-205 cell lysates; type: cell-based; conditions: for reduction of EphB2 phosphorylation: at 2 μM
Protocol: (§1) ELISA. ELISA plates (ThermoFisher Scientific, Immulon 4HBX, 3855) were coated overnight at 4° C. with capture antibody 75 ng/well in PBS, and blocked with 5% BSA (Sigma-Aldrich, St. Louis, MO) in PBS for two hours at room temperature. Capture antibodies for EphB4 was goat polyclonal antibody (R&D Systems AF3038); for EphA2 was goat polyclonal antibody (R&D Systems AF3035); 10 ug of cell lysate was applied to the ELISA well for two hours at room temperature. The amount of tyrosine phosphorylation was measured with pTyr-HRP antibody (R&D Systems, HAM1676). The ELISA was developed with 3,3′,5,5′-Tetramethylbenzidine (TMB) (ThermoFisher Scientific, 7588927) for 15 minutes and stopped with 1M H2SO4 (Sigma-Aldrich, 258105). Absorbance at 450 nm was measured using POLARstar Optima plate reader (BMG Labtech, Cary, NC). All conditions were tested in duplicate. pEphB2 was measured by ELISA (Ray Biotech, PEL-EphB2-Y) according to the manufacturer's recommendations.

[7] = target: EphB4 (Homo sapiens (Human), UniProt P54760); experiment: Endogenous EphB4 tyrosine phosphorylation by ELISA in HT29 cell lysates; type: cell-based; conditions: for reduction of EphB4 phosphorylation: at 2 μM
Protocol: as §1

[8] = target: T1, EphA2; experiment: Endogenous EphA2 tyrosine phosphorylation by ELISA in RKO cell lysates; type: cell-based; conditions: for reduction of EphA2 phosphorylation: at 2 μM
Protocol: as §1

[9] = test system: SW620 cells; experiment: Cleaved caspase-3 immunofluorescence microscopy in colorectal cancer cells (SW620); type: cell-based, human; conditions: 72 hours
Protocol: Cell viability was also measured by detection of cell-associated cleaved caspase-3. Cells were grown on gelatin-coated glass chamber slides, fixed in 4% paraformaldehyde, immune-stained with rabbit monoclonal antibody to cleaved Caspase 3 (1:100 Cell Signaling Technology) followed by Alexa Fluor 488-conjugated anti-rabbit IgG (1:400 Invitrogen) and mounted with Vectastain containing DAPI (Vector Laboratories). The slides were imaged through a Zeiss LSM780 confocal microscope. Image quantification (cleaved Caspase-3^+ nucleiltotal nuclei) was performed by CellProfiler software.

[10] = test system: MG63; experiment: MG63 proliferation (specificity control); type: cell-based, human; conditions: 125-2000 nM
[11] = test system: LC3; experiment: LC3 autophagic puncta imaging in HT-29 cells transduced with fluorescent LC3; type: cell-based, human
Protocol: Autophagy-related cell death was assessed by evaluation of LC3 autophagy-associated protein. The cells were first induced to stably express fluorescent pK (pHluorin-mKate2) LC3 by lentiviral infection. The cells were subsequently grown on glass coverslips (ThermoFisher, 12-545-81) until 50% confluent. Coverslips were washed with PBS −/−, fixed with 4% PEA for 15 minutes at room temperature, washed with TBS, mounted with DAPI-containing mounting media, allowed to harden overnight and sealed. Coverslips were imaged on a confocal Zeiss 780 microscope. Images were analyzed by CellProfiler using automatic thresholding to calculate the number of nuclei (DAPI staining) and the number of puncta. The results are expressed as the percent cells with two or more puncta. […] Monolayer cell confluency overtime was measured by IncuCyte HD (Essen BioSciences) imaging.
Immunostaining and microscopy. […] Maximum intensity projections (Zen Software 2.3 Blue Edition; Carl Zeiss) were used for quantification using CellProfiler software (Kamentsky et al., Bioinformatics 2011, 27:1179-1180) with automatic thresholding. Integrated intensity of CD31 was measured. The percent Ki-67 positive cells was measured by calculating the number of Ki-67 positive cells/total number DAPI^+ nuclei. The area of cleaved Caspase-3 positive area/total area was calculated by CellProfiler with automatic threshold. […]

[12] = test system: HUVEC; experiment: HUVEC proliferation (specificity control); type: cell-based, human; conditions: 125-2000 nM
[13] = test system: colorectal carcinoma cell lines; experiment: Proliferation of 10 colorectal carcinoma cell lines; type: cell-based, human; conditions: 1 μM, all colorectal carcinoma cell lines

EphB4, sequence (P54760 16-987): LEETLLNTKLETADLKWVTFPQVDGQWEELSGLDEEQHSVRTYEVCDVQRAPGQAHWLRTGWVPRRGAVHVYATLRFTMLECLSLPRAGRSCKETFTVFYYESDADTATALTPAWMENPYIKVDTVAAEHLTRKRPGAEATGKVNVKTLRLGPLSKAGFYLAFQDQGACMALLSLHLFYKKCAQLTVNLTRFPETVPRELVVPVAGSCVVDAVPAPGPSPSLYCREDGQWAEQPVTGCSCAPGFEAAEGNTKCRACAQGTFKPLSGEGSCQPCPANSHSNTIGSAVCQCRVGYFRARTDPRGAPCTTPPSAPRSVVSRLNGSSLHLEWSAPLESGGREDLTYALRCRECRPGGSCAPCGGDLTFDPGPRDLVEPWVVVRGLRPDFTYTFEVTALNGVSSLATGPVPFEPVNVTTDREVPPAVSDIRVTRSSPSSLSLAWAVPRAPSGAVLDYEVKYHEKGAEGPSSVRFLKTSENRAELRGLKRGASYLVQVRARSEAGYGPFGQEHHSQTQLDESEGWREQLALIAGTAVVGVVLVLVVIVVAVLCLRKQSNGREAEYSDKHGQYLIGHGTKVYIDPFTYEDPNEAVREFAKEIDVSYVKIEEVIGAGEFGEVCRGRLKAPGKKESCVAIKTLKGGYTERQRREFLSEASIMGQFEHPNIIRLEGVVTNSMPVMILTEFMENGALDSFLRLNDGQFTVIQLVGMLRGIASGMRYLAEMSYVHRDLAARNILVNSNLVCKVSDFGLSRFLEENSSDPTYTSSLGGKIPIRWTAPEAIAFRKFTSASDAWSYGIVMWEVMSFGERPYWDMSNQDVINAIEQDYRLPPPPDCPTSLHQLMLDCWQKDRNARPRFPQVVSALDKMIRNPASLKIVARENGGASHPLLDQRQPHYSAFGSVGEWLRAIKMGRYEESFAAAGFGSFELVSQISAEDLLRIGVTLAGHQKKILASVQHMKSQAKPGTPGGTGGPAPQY
EphB2, sequence (P29323 19-1055): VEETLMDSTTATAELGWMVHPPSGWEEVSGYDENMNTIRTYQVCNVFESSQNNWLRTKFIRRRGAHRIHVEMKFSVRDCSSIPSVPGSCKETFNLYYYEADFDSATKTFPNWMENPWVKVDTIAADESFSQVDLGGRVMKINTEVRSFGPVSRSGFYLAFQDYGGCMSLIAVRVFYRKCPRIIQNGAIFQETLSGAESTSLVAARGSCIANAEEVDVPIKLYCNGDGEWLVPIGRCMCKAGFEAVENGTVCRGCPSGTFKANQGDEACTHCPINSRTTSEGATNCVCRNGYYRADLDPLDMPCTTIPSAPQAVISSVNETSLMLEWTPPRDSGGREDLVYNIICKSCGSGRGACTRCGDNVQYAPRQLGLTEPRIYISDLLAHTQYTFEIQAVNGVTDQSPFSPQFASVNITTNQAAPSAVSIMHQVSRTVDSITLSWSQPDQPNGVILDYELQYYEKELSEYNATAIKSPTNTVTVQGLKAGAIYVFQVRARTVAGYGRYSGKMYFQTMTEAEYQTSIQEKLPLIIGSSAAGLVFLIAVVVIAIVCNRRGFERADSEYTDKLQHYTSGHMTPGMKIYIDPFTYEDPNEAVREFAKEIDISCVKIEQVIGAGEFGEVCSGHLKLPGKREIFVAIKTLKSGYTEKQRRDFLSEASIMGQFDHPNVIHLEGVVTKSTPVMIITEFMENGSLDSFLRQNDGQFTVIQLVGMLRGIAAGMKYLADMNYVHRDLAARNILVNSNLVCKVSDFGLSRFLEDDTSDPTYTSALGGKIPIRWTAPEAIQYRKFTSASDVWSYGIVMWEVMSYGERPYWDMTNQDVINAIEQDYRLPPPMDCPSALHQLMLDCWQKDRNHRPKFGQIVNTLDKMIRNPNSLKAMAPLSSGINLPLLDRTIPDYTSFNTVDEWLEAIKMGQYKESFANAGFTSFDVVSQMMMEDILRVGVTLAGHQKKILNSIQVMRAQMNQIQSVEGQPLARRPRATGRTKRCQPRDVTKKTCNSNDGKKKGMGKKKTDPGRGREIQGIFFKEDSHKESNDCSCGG
T1 sequence (P29317 24-976): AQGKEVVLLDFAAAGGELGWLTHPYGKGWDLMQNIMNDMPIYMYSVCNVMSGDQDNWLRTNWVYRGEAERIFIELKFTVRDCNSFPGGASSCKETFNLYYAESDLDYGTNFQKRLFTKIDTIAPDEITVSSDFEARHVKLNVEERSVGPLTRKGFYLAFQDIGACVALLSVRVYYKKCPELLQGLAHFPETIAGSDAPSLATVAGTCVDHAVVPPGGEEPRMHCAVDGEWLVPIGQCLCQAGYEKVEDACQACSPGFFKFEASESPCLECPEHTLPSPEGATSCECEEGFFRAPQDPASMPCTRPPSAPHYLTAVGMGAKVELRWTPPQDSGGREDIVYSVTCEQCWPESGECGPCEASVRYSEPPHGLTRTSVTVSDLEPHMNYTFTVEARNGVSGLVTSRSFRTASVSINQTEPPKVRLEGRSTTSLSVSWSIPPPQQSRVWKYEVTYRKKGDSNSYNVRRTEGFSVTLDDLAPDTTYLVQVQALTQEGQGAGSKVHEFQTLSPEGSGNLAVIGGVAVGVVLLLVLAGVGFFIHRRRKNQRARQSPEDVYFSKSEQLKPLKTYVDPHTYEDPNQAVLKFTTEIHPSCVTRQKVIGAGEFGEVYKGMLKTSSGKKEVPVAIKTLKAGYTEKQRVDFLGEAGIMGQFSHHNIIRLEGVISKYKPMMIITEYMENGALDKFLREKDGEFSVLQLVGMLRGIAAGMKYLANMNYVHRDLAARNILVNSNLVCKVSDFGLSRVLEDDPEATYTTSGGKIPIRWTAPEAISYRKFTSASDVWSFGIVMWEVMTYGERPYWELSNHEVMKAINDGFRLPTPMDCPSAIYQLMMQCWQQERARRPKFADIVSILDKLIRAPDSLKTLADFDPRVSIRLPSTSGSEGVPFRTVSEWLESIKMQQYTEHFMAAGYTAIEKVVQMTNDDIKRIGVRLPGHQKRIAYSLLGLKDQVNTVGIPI

SMILES: Cn1cnc(N)c2ncnc1-2 [3-Methyladenine]
- LC3B accumulation induced by NVP and NVP-Iso in SW620 cells [1]: reduces this LC3B accumulation
- LC3B accumulation in cells treated with 1 μM NVP or NVP-Iso [2]: reduced accumulation of LC3B
- anti-proliferative effects of NVP and NVP-Iso in colorectal cancer cells [3]: mitigated the anti-proliferative

- fold lower binding affinity towards EphA2 ([4]; compared with @1 and @3): 44 fold
- Kd [4]: 132 nM
SMILES: Cc1ccc(C(=O)Nc2cccc(C(F)(F)F)c2)cc1Nc1nc(-c2cnccn2)nc2nn(C)cc12 [@2, 4-Methyl-3-((2-methyl-6-(pyrazin-2-yl)-2H-pyrazolo[3,4-d]pyrimidin-4-yl)amino)-N-(3-(trifluoromethyl)-phenyl)benzamide]

SMILES: Cc1ccc(C(=O)Nc2cccc(C(F)(F)F)c2)cc1Nc1nc(-c2cncnc2)nc2c1cnn2C [@3, 4-Methyl-3-((1-methyl-6-(pyrimidin-5-yl)-1H-pyrazolo[3,4-d]pyrimidin-4-yl)amino)-N-(3-(trifluoromethyl)phenyl)benzamide]
- induction of autophagosome marker LC3B (immunoblotting) ([2]; 72-hour incubation): failure
- distribution of cells within the cell cycle [5]: marked reduction of the proportion of cells within the G2M phase
- inhibitory activity for p-EphB2 compared to NVP ([6]; four hours treatment): comparable or only slightly reduced inhibitory activity
- inhibitory activity for p-EphB4 compared to NVP ([7]; four hours treatment): comparable or only slightly reduced inhibitory activity
- inhibitory activity for p-EphA2 compared to NVP ([8]; four hours treatment): comparable or only slightly reduced inhibitory activity
- cleaved caspase-3 detection in treated cells [9]: only in a minority of cells

- Kd [4]: 86 nM
SMILES: Cc1ccc(C(=O)Nc2cccc(C(F)(F)F)c2)cc1Nc1nc(-c2cccnc2)nc2ccccc12 [@4, 4-Methyl-3-((2-(pyridin-3-yl)quinazolin-4-yl)amino)-N-(3-(trifluoromethyl)phenyl)benzamide]

- Kd [4]: 225 nM
- reduction of EphB2 phosphorylation [6]: marginal reduction
- reduction of EphB4 phosphorylation [7]: marginal reduction
- reduction of EphA2 phosphorylation [8]: marginal reduction
SMILES: Cc1ccc(C(=O)Nc2cccc(C(F)(F)F)c2)cc1Nc1nc(-c2cccnc2)nc2ncccc12 [@5, 4-Methyl-3-((2-(pyridin-3-yl)pyrido[2,3-d]pyrimidin-4-yl)amino)-N-(3-(trifluoromethyl)phenyl)benzamide]

- Kd [4]: 24 nM
SMILES: Cc1ccc(C(=O)Nc2cccc(C(F)(F)F)c2)cc1Nc1nc(-c2cccnc2)nc(-c2cccnc2)n1 [@6, 3-((4,6-Di(pyridin-3-yl)-1,3,5-triazin-2-yl)amino)-4-methyl-N-(3-(trifluoromethyl)phenyl)benzamide]

- Kd [4]: ~2880 nM
SMILES: Cc1cc(C(=O)Nc2cccc(C(F)(F)F)c2)ccc1Nc1nc(-c2cnccn2)nc2nn(C)cc12 [@7]

- Kd [4]: 34 nM
SMILES: Cc1cc(C(=O)Nc2cccc(C(F)(F)F)c2)ccc1Nc1nc(N2CCCC2)nc(-n2ccnc2)n1 [@9]

SMILES: Cc1ccc(C(=O)Nc2cccc(C(F)(F)F)c2)cc1Nc1nc(N2CCOCC2)nc(-n2ccnc2)n1 [@10, 3-((4-(1H-imidazol-1-yl)-6-morpholino-1,3,5-triazin-2-yl)amino)-4-methyl-N-(3-(trifluoromethyl)phenyl)benzamide]
- Kd [4]: 191 nM
- reduction of EphB2 phosphorylation [6]: marginal reduction
- reduction of EphB4 phosphorylation [7]: marginal reduction
- reduction of MG63 cell proliferation [10]: moderately inhibitory
- LC3-related autophagy puncta ([11]; 72 hours): also induced LC3B-related puncta
- reduction of EphA2 phosphorylation [8]: marginal reduction
- reduction of HUVECs proliferation [12]: moderately inhibitory

- Kd [4]: 443 nM
SMILES: Cc1cc(C(=O)Nc2cccc(C(F)(F)F)c2)ccc1Nc1nc(N2CCNCC2)nc(-n2ccnc2)n1 [@11]

- Kd [4]: 132 nM
SMILES: Cc1cc(C(=O)Nc2cccc(C(F)(F)F)c2)ccc1Nc1nc(N2CC[C@H](O)C2)nc(-n2ccnc2)n1 [@12]

- Kd [4]: 97 nM
SMILES: Cc1ccc(C(=O)Nc2cccc(Cl)c2)cc1Nc1nc(N2CC[C@H](O)C2)nc(-n2ccnc2)n1 [@13, (S)-N-(3-chlorophenyl)-3-((4-(3-hydroxypyrrolidin-1-yl)-6-(1H-imidazol-1-yl)-1,3,5-triazin-2-yl)amino)-4-methylbenzamide]

SMILES: Cc1ccc(C(=O)Nc2cccc(C(F)(F)F)c2)cc1Nc1nc(-c2cccnc2)nc2c1cnn2C [NVP, NVP-BHG712]
- reduction of proliferation [13]: > 50%

SMILES: Fc1ccc(CNc2ncnc3ccc(F)cc23)cc1 [Spautin, spautin-1]
- LC3B accumulation induced by NVP and NVP-Iso in SW620 cells [1]: reduces this LC3B accumulation
- LC3B accumulation in cells treated with 1 μM NVP or NVP-Iso [2]: reduced accumulation of LC3B
- LC3-related puncta/cell increased by NVP and NVP-Iso ([11]; spautin 4-hour pretreatment): reduces this drug-effect
- anti-proliferative effects of NVP and NVP-Iso in colorectal cancer cells [3]: mitigated the anti-proliferative

SMILES: CCN(CC)CCCC(C)Nc1ccnc2cc(Cl)ccc12 (centres unmarked) [chloroquine, Chloroquine]
- LC3B accumulation in cells treated with 1 μM NVP or NVP-Iso [2]: enhanced the accumulation of LC3B
